{"source": "paper PMC7156458", "about": "“Synthetic biology based construction of biological activity-related library of fungal decalin-containing diterpenoid pyrones” (Nature Communications, 2020)", "target": "Aβ42 (Homo sapiens, UniProt P05067)", "sequence (P05067 672-713)": "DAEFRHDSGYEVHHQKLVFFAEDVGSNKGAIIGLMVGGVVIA", "assay": "Th-T (thioflavin-T) assay of Aβ42 aggregation", "type": "biochemical", "conditions": "for Th-T fluorescence of Aβ42 with compound, mean of three wells (Fig. 7a source data): concentration 50, unit not given", "data": [{"smiles": "C=C1CC[C@@H]2[C@](C)(CC[C@H]3O[C@H](C=C(C)C)C[C@@]23C)[C@@H]1Cc1c(OC)oc(CO)c(C)c1=O", "note": "[Compound 20]", "values": [{"measurement": "Th-T fluorescence of Aβ42 with compound, mean of three wells (Fig. 7a source data)", "setting": "time-course reading M143", "result": 2.125}, {"measurement": "Th-T fluorescence of Aβ42 with compound, mean of three wells (Fig. 7a source data)", "setting": "time-course reading M144", "result": 2.117}, {"measurement": "Th-T fluorescence of Aβ42 with compound, mean of three wells (Fig. 7a source data)", "setting": "time-course reading M145", "result": 2.122}, {"measurement": "Th-T fluorescence of Aβ42 (sheet Fig. 7a), mean of three wells", "setting": "head suffix _10 (concentration 10), reading M63", "result": 3.458}, {"measurement": "Th-T fluorescence of Aβ42 (sheet Fig. 7a), mean of three wells", "setting": "head suffix _10 (concentration 10), reading M64", "result": 3.444}, {"measurement": "Th-T fluorescence of Aβ42 (sheet Fig. 7a), mean of three wells", "setting": "head suffix _10 (concentration 10), reading M65", "result": 3.449}, {"measurement": "Th-T fluorescence of Aβ42 (sheet Fig. 7a), mean of three wells", "setting": "head suffix _10 (concentration 10), reading M66", "result": 3.444}, {"measurement": "Th-T fluorescence of Aβ42 (sheet Fig. 7a), mean of three wells", "setting": "head suffix _10 (concentration 10), reading M67", "result": 3.437}, {"measurement": "Th-T fluorescence of Aβ42 (sheet Fig. 7a), mean of three wells", "setting": "head suffix _10 (concentration 10), reading M68", "result": 3.439}, {"measurement": "Th-T fluorescence of Aβ42 (sheet Fig. 7a), mean of three wells", "setting": "head suffix _10 (concentration 10), reading M69", "result": 3.4039}, {"measurement": "Th-T fluorescence of Aβ42 (sheet Fig. 7a), mean of three wells", "setting": "head suffix _10 (concentration 10), reading M70", "result": 3.402}, {"measurement": "Th-T fluorescence of Aβ42 (sheet Fig. 7a), mean of three wells", "setting": "head suffix _10 (concentration 10), reading M71", "result": 3.423}, {"measurement": "Th-T fluorescence of Aβ42 (sheet Fig. 7a), mean of three wells", "setting": "head suffix _10 (concentration 10), reading M72", "result": 3.425}, {"measurement": "Th-T fluorescence of Aβ42 (sheet Fig. 7a), mean of three wells", "setting": "head suffix _10 (concentration 10), reading M73", "result": 3.414}, {"measurement": "Th-T fluorescence of Aβ42 (sheet Fig. 7a), mean of three wells", "setting": "head suffix _10 (concentration 10), reading M74", "result": 3.412}, {"measurement": "Th-T fluorescence of Aβ42 (sheet Fig. 7a), mean of three wells", "setting": "head suffix _10 (concentration 10), reading M75", "result": 3.393}, {"measurement": "Th-T fluorescence of Aβ42 (sheet Fig. 7a), mean of three wells", "setting": "head suffix _10 (concentration 10), reading M76", "result": 3.416}, {"measurement": "Th-T fluorescence of Aβ42 (sheet Fig. 7a), mean of three wells", "setting": "head suffix _10 (concentration 10), reading M77", "result": 3.391}, {"measurement": "Th-T fluorescence of Aβ42 (sheet Fig. 7a), mean of three wells", "setting": "head suffix _10 (concentration 10), reading M78", "result": 3.393}, {"measurement": "Th-T fluorescence of Aβ42 (sheet Fig. 7a), mean of three wells", "setting": "head suffix _10 (concentration 10), reading M79", "result": 3.378}, {"measurement": "Th-T fluorescence of Aβ42 (sheet Fig. 7a), mean of three wells", "setting": "head suffix _10 (concentration 10), reading M80", "result": 3.379}, {"measurement": "Th-T fluorescence of Aβ42 (sheet Fig. 7a), mean of three wells", "setting": "head suffix _10 (concentration 10), reading M81", "result": 3.38}, {"measurement": "Th-T fluorescence of Aβ42 (sheet Fig. 7a), mean of three wells", "setting": "head suffix _10 (concentration 10), reading M82", "result": 3.375}, {"measurement": "Th-T fluorescence of Aβ42 (sheet Fig. 7a), mean of three wells", "setting": "head suffix _10 (concentration 10), reading M83", "result": 3.373}, {"measurement": "Th-T fluorescence of Aβ42 (sheet Fig. 7a), mean of three wells", "setting": "head suffix _10 (concentration 10), reading M84", "result": 3.355}, {"measurement": "Th-T fluorescence of Aβ42 (sheet Fig. 7a), mean of three wells", "setting": "head suffix _20 (concentration 20), reading M63", "result": 3.439}, {"measurement": "Th-T fluorescence of Aβ42 (sheet Fig. 7a), mean of three wells", "setting": "head suffix _20 (concentration 20), reading M64", "result": 3.419}, {"measurement": "Th-T fluorescence of Aβ42 (sheet Fig. 7a), mean of three wells", "setting": "head suffix _20 (concentration 20), reading M65", "result": 3.416}, {"measurement": "Th-T fluorescence of Aβ42 (sheet Fig. 7a), mean of three wells", "setting": "head suffix _20 (concentration 20), reading M66", "result": 3.432}, {"measurement": "Th-T fluorescence of Aβ42 (sheet Fig. 7a), mean of three wells", "setting": "head suffix _20 (concentration 20), reading M67", "result": 3.438}, {"measurement": "Th-T fluorescence of Aβ42 (sheet Fig. 7a), mean of three wells", "setting": "head suffix _20 (concentration 20), reading M68", "result": 3.449}, {"measurement": "Th-T fluorescence of Aβ42 (sheet Fig. 7a), mean of three wells", "setting": "head suffix _20 (concentration 20), reading M69", "result": 3.405}, {"measurement": "Th-T fluorescence of Aβ42 (sheet Fig. 7a), mean of three wells", "setting": "head suffix _20 (concentration 20), reading M70", "result": 3.395}, {"measurement": "Th-T fluorescence of Aβ42 (sheet Fig. 7a), mean of three wells", "setting": "head suffix _20 (concentration 20), reading M71", "result": 3.403}, {"measurement": "Th-T fluorescence of Aβ42 (sheet Fig. 7a), mean of three wells", "setting": "head suffix _20 (concentration 20), reading M72", "result": 3.419}, {"measurement": "Th-T fluorescence of Aβ42 (sheet Fig. 7a), mean of three wells", "setting": "head suffix _20 (concentration 20), reading M73", "result": 3.421}, {"measurement": "Th-T fluorescence of Aβ42 (sheet Fig. 7a), mean of three wells", "setting": "head suffix _20 (concentration 20), reading M74", "result": 3.387}, {"measurement": "Th-T fluorescence of Aβ42 (sheet Fig. 7a), mean of three wells", "setting": "head suffix _20 (concentration 20), reading M75", "result": 3.3567}, {"measurement": "Th-T fluorescence of Aβ42 (sheet Fig. 7a), mean of three wells", "setting": "head suffix _20 (concentration 20), reading M76", "result": 3.391}, {"measurement": "Th-T fluorescence of Aβ42 (sheet Fig. 7a), mean of three wells", "setting": "head suffix _20 (concentration 20), reading M77", "result": 3.3972}, {"measurement": "Th-T fluorescence of Aβ42 (sheet Fig. 7a), mean of three wells", "setting": "head suffix _20 (concentration 20), reading M78", "result": 3.402}, {"measurement": "Th-T fluorescence of Aβ42 (sheet Fig. 7a), mean of three wells", "setting": "head suffix _20 (concentration 20), reading M79", "result": 3.362}, {"measurement": "Th-T fluorescence of Aβ42 (sheet Fig. 7a), mean of three wells", "setting": "head suffix _20 (concentration 20), reading M80", "result": 3.347}, {"measurement": "Th-T fluorescence of Aβ42 (sheet Fig. 7a), mean of three wells", "setting": "head suffix _20 (concentration 20), reading M81", "result": 3.353}, {"measurement": "Th-T fluorescence of Aβ42 (sheet Fig. 7a), mean of three wells", "setting": "head suffix _20 (concentration 20), reading M82", "result": 3.387}, {"measurement": "Th-T fluorescence of Aβ42 (sheet Fig. 7a), mean of three wells", "setting": "head suffix _20 (concentration 20), reading M83", "result": 3.377}, {"measurement": "Th-T fluorescence of Aβ42 (sheet Fig. 7a), mean of three wells", "setting": "head suffix _20 (concentration 20), reading M84", "result": 3.32}, {"measurement": "Th-T fluorescence of Aβ42 (sheet Fig. 7a), mean of three wells", "setting": "head suffix _50 (concentration 50), reading M63", "result": 2.073}, {"measurement": "Th-T fluorescence of Aβ42 (sheet Fig. 7a), mean of three wells", "setting": "head suffix _50 (concentration 50), reading M64", "result": 2.076}, {"measurement": "Th-T fluorescence of Aβ42 (sheet Fig. 7a), mean of three wells", "setting": "head suffix _50 (concentration 50), reading M65", "result": 2.0862}, {"measurement": "Th-T fluorescence of Aβ42 (sheet Fig. 7a), mean of three wells", "setting": "head suffix _50 (concentration 50), reading M66", "result": 2.098}, {"measurement": "Th-T fluorescence of Aβ42 (sheet Fig. 7a), mean of three wells", "setting": "head suffix _50 (concentration 50), reading M67", "result": 2.131}, {"measurement": "Th-T fluorescence of Aβ42 (sheet Fig. 7a), mean of three wells", "setting": "head suffix _50 (concentration 50), reading M68", "result": 2.106}, {"measurement": "Th-T fluorescence of Aβ42 (sheet Fig. 7a), mean of three wells", "setting": "head suffix _50 (concentration 50), reading M69", "result": 2.087}, {"measurement": "Th-T fluorescence of Aβ42 (sheet Fig. 7a), mean of three wells", "setting": "head suffix _50 (concentration 50), reading M70", "result": 2.078}, {"measurement": "Th-T fluorescence of Aβ42 (sheet Fig. 7a), mean of three wells", "setting": "head suffix _50 (concentration 50), reading M71", "result": 2.105}, {"measurement": "Th-T fluorescence of Aβ42 (sheet Fig. 7a), mean of three wells", "setting": "head suffix _50 (concentration 50), reading M72", "result": 2.132}]}]}
